In US11708344B2, “Flavone derivatives for the treatment and prophylaxis of hepatitis B virus disease” (Hoffmann-La Roche Inc., priority 2018, dated 2023):
Like-named read-outs stand apart in the source and are kept apart here.

How the values were obtained:
[1] = Human microsome stability assay; type: in vitro ADME; conditions: human liver microsomes, 1 μM test compound, 0.5 mg/mL microsomal protein, 37° C., pH 7.4, 0-30 minutes
In short: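 Compound (1 μM) incubated at 37 °C with human liver microsomes (0.5 mg/mL protein) in 100 mM potassium phosphate, pH 7.4, after 10 min preincubation; started with NADPH regenerating system. Sampled at 0–30 min, quenched with cold ACN; remaining parent quantified by LC-MS/MS, with no-NADPH controls.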

[2] = test system: HBeAg (surrogate marker for cccDNA) in HepDES19 cells; experiment: Engineered HepDES19 primary screen assay (HBeAg ELISA); type: cell-based, HBV
In short: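 HepDES19 cells were induced by Tet withdrawal for 8 days, then treated with half-log compound dilutions (1% DMSO final) for 5 days at 37 °C. HBeAg was measured by ELISA as the cccDNA surrogate, viability by CCK-8, and IC50 from a 4-parameter logistic fit.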

[3] = read-out: IC50 (HBeAg level, HepDES19 primary screen assay), HepDES19 cells, 5 days compound incubation, HBeAg ELISA
[4] = Hepatitis B virus, HepDES19, 120 h, read-out: IC50 (HBeAg level, HepDES19 primary screen assay), HepDES19 cells, 5 days compound incubation, HBeAg ELISA

SMILES | Clearance of Human microsome [1] [mL/min/kg] | IC50 [2, 3] [µM] | IC50 [2, 4] [µM]
O=C(O)C1CCCN1C(=O)COc1cc(C(F)(F)F)ccc1-c1cc(=O)c2cccc(Cl)c2o1 (stereo in doubt) [Example A082, (2S)-1-[2-[2-(8-chloro-4-oxo-chromen-2-yl)-5-(trifluoromethyl)phenoxy]acetyl]pyrrolidine-2-carboxylic acid] | 6.15 | 1.19 | –
Cc1cc(-c2cc(=O)c3cccc(Br)c3o2)c(OCCCOCC(=O)O)cc1Cl [Example C018, 2-[3-[2-(8-bromo-4-oxo-chromen-2-yl)-5-chloro-4-methyl-phenoxy]propoxy]acetic acid] | 6.74 | – | 4.82
COc1cc(OCC2(CC(=O)O)CC2)c(-c2cc(=O)c3cccc(Cl)c3o2)cc1OC [Example A067, 2-[1-[[2-(8-chloro-4-oxo-chromen-2-yl)-4,5-dimethoxy-phenoxy]methyl]cyclopropyl]acetic acid] | 6.15 | – | 1.68
COc1cc(OCCO[C@H]2C[C@@H](C(=O)O)C2)c(-c2cc(=O)c3cccc(Cl)c3o2)cc1Br [Example C040-A, Cis-3-[2-[4-bromo-2-(8-chloro-4-oxo-chromen-2-yl)-5-methoxy-phenoxy]ethoxy]cyclobutanecarboxylic acid] | 8.52 | – | 13.2
O=c1cc(-c2cc3c(cc2OCCO[C@H]2C[C@@H](C(=O)O)C2)OC(F)(F)O3)oc2c(Cl)cccc12 [Example C102, Cis-3-[2-[[6-(8-chloro-4-oxo-chromen-2-yl)-2,2-difluoro-1,3-benzodioxol-5-yl]oxy]ethoxy]cyclobutanecarboxylic acid] | 7.11 | – | 7
COc1ccc(OCCOC2CC(C(=O)O)C2)c(-c2cc(=O)c3cccc(Cl)c3o2)c1 (stereo not shown) [Example C060, 3-[2-[2-(8-chloro-4-oxo-chromen-2-yl)-4-methoxy-phenoxy]ethoxy]cyclobutanecarboxylic acid] | 6.15 | – | 9.81
O=c1cc(-c2ccc(Br)cc2OCCCO[C@H]2C[C@@H](C(=O)O)C2)oc2c(Cl)cccc12 [Example C056-A, Cis-3-[3-[5-bromo-2-(8-chloro-4-oxo-chromen-2-yl)phenoxy]propoxy]cyclobutanecarboxylic acid] | 6.15 | – | 2.39
O=C(O)[C@@H]1C[C@@H](Oc2cc(C(F)(F)F)ccc2-c2cc(=O)c3cccc(Cl)c3o2)CN1S(=O)(=O)C1CC1 [Example B077] | 6.15 | – | 0.657
O=C(O)[C@H]1CCCN1C(=O)COc1cc(C(F)(F)F)ccc1-c1cc(=O)c2cccc(Cl)c2o1 [Example A081, (2R)-1-[2-[2-(8-chloro-4-oxo-chromen-2-yl)-5-(trifluoromethyl)phenoxy]acetyl]pyrrolidine-2-carboxylic acid] | 6.15 | 0.26 | –
CCOc1ccc(OCCO[C@H]2C[C@H](C(=O)O)C2)c(-c2cc(=O)c3cccc(Cl)c3o2)c1 [Example C051-B, Trans-3-[2-[2-(8-chloro-4-oxo-chromen-2-yl)-4-ethoxy-phenoxy]ethoxy]cyclobutanecarboxylic acid] | 7.85 | – | 9.41
CN1C(=O)C(C)(C)c2cc(OCCO[C@H]3C[C@@H](C(=O)O)C3)c(-c3cc(=O)c4cccc(Cl)c4o3)cc21 [Example C093, Cis-3-[2-[6-(8-chloro-4-oxo-chromen-2-yl)-1,3,3-trimethyl-2-oxo-indolin-5-yl]oxyethoxy]cyclobutanecarboxylic acid] | 6.15 | – | 7.79
COc1cc(OCCO[C@H]2C[C@@H](C(=O)O)C2)c(-c2cc(=O)c3c(O)ccc(Cl)c3o2)cc1OC [Example C098, cis-3-[2-[2-(8-chloro-5-hydroxy-4-oxo-chromen-2-yl)-4,5-dimethoxy-phenoxy]ethoxy]cyclobutanecarboxylic acid] | 6.15 | – | 8.56
O=C(O)COCCCOc1cc(C(F)(F)F)ccc1-c1cc(=O)c2c(O)ccc(Cl)c2o1 [Example C100, 2-[3-[2-(8-chloro-5-hydroxy-4-oxo-chromen-2-yl)-5-(trifluoromethyl)phenoxy]propoxy]acetic acid] | 6.15 | – | 0.691
Cc1ccc(-c2cc(=O)c3cccc(Cl)c3o2)c(OCC(=O)N2CCC[C@@H]2C(=O)NS(C)(=O)=O)c1 [Example A094, (2R)-1-[2-[2-(8-chloro-4-oxo-chromen-2-yl)-5-methyl-phenoxy]acetyl]-N-methylsulfonyl-pyrrolidine-2-carboxamide] | 6.15 | – | 0.858
O=C(O)[C@@H]1CC[C@@H](Oc2cc(Br)ccc2-c2cc(=O)c3cccc(Cl)c3o2)C1 (relative stereo) [Example B028-B, Trans-3-[5-bromo-2-(8-chloro-4-oxo-chromen-2-yl)phenoxy]cyclopentanecarboxylic acid] | 9.98 | – | 0.213
O=C(COCCOc1cc(Br)ccc1-c1cc(=O)c2cccc(Cl)c2o1)NS(=O)(=O)C1CC1 [Example C116, 2-[2-[5-bromo-2-(8-chloro-4-oxo-chromen-2-yl)phenoxy]ethoxy]-N-cyclopropylsulfonyl-acetamide] | 6.15 | – | 9.13
O=C(O)COCCOc1cc(C(F)(F)F)ccc1-c1cc(=O)c2cccc(Cl)c2o1 [Example C005, 2-[2-[2-(8-chloro-4-oxo-chromen-2-yl)-5-(trifluoromethyl)phenoxy]ethoxy]acetic acid] | 8.08 | – | 17.7
Cc1ccc(-c2cc(=O)c3cccc(Cl)c3o2)c(OCC(C)(C)C(=O)O)c1 [Example A063, 3-[2-(8-chloro-4-oxo-chromen-2-yl)-5-methyl-phenoxy]-2,2-dimethyl-propanoic acid] | 6.15 | – | 1.35
Cc1cc(F)c(-c2cc(=O)c3cccc(Cl)c3o2)c(OCCC(=O)O)c1 [Example A021, 3-[2-(8-chloro-4-oxo-chromen-2-yl)-3-fluoro-5-methyl-phenoxy]propanoic acid] | 6.15 | – | 4.04
CCOc1ccc(-c2cc(=O)c3cccc(Cl)c3o2)c(OCCO[C@H]2C[C@@H](C(=O)O)C2)c1 [Example C035-A, Cis-3-[2-[2-(8-chloro-4-oxo-chromen-2-yl)-5-ethoxy-phenoxy]ethoxy]cyclobutanecarboxylic acid] | 8.64 | – | 12.5
O=c1cc(-c2ccc(F)cc2OCCO[C@H]2C[C@@H](C(=O)O)C2)oc2c(Cl)cc(F)cc12 [Example C045-A, Cis-3-[2-[2-(8-chloro-6-fluoro-4-oxo-chromen-2-yl)-5-fluoro-phenoxy]ethoxy]cyclobutanecarboxylic acid] | 6.53 | – | 2.62
COc1cc(OC2CC(C(=O)O)C2)c(-c2cc(=O)c3c(O)ccc(Cl)c3o2)cc1OC (stereo not shown) [Example B042, 3-[2-(8-chloro-5-hydroxy-4-oxo-chromen-2-yl)-4,5-dimethoxy-phenoxy]cyclobutanecarboxylic acid] | 6.15 | – | 0.865
Cc1cc(-c2cc(=O)c3cccc(Cl)c3o2)c(OCC(C)(C)C(=O)O)cc1Cl [Example A064, 3-[5-chloro-2-(8-chloro-4-oxo-chromen-2-yl)-4-methyl-phenoxy]-2,2-dimethyl-propanoic acid] | 9.5 | – | 9.59
O=C(O)CCOc1cc(C(F)(F)F)ccc1-c1oc2c(Cl)cccc2c(=O)c1O [Example A046, 3-[2-(8-chloro-3-hydroxy-4-oxo-chromen-2-yl)-5-(trifluoromethyl)phenoxy]propanoic acid] | 6.15 | – | 7.86
Cc1ccc(-c2cc(=O)c3cccc(Cl)c3o2)c(OCCO[C@H]2C[C@H](C(=O)O)C2)c1 [Example C038-B, Trans-3-[2-[2-(8-chloro-4-oxo-chromen-2-yl)-5-methyl-phenoxy]ethoxy]cyclobutanecarboxylic acid] | 6.15 | – | 1.53
CCOc1ccc(-c2cc(=O)c3c(C(F)(F)F)ccc(Cl)c3o2)c(OCCO[C@H]2C[C@@H](C(=O)O)C2)c1 [Example C095, cis-3-[2-[2-[8-chloro-4-oxo-5-(trifluoromethyl)chromen-2-yl]-5-ethoxy-phenoxy]ethoxy]cyclobutanecarboxylic acid] | 9.62 | – | 3.29
O=c1cc(-c2ccccc2OCCO[C@H]2C[C@@H](C(=O)O)C2)oc2c(Cl)ccc(C(F)(F)F)c12 [Example C094, cis-3-[2-[2-[8-chloro-4-oxo-5-(trifluoromethyl)chromen-2-yl]phenoxy]ethoxy]cyclobutanecarboxylic acid] | 6.15 | – | 0.04
Cc1ccc(-c2cc(=O)c3cccc(Cl)c3o2)c(OCCCC(=O)O)c1 [Example A059, 4-[2-(8-chloro-4-oxo-chromen-2-yl)-5-methyl-phenoxy]butanoic acid] | 8.34 | – | 0.622
O=C(O)COCCCOc1cc(C(F)(F)F)ccc1-c1cc(=O)c2cccc(Cl)c2o1 [Example C001, 2-[3-[2-(8-chloro-4-oxo-chromen-2-yl)-5-(trifluoromethyl)phenoxy]propoxy]acetic acid] | 6.15 | – | 3.05
